One test has as its system Notch-1. Briefly: Notch Western blot in MDA-MB231 cells. Format: cell-based, human. How it is done:
Notch silencing was confirmed by Western blot using commercial goat polyclonal antibodies from Santa Cruz Biotechnology to Notch-1 (C-20, Cat# sc-6014 S) and Notch-4 (C-19, Cat# sc-8644). Total cell lysates were prepared as follows: cells grown on 6 cm dishes were scraped in lysis buffer containing 1×PBS, 1% Nonidet P40, 0.5% deoxycholate, 0.1% SDS, freshly added aprotinin (45 μg/ml), phenylmethylsulfonyl fluoride (10 μg/ml), and sodium orthovanadate (10 μM). Lysates were sonicated 4 times for 5 seconds each, followed by 30 minutes incubation on ice. Lysates were centrifuged at 10,000 g for 20 minutes at 4° C. Supernatants were used as total cell lysates. Nuclear extracts were prepared as follows: 10,000,000 cells were pelleted, washed, and quickly frozen in a dry ice bath. Pellets were thawed by adding 100 μl of buffer 1 (10 mM HEPES, pH 7.9, 10 mM KCl, 1.5 mM MgCl2, 1 mM DTT). Nuclei were pelleted and lysed in 15 μl Buffer 2 (20 mM HEPES, pH7.9, 0.4 M NaCl, 1.5 mM MgCl2, 25% glycerol, 0.2 mM EDTA, 1 mM DTT, and 0.5 mM PMSF). Lysates were diluted in 50-70 μl Buffer 3 (20 mM HEPES, pH 7.9, 50 mM KCl, 20% glycerol, 0.2 mM EDTA, 1 mM DTT, 0.5 mM PMSF). Protein concentrations were estimated using the BCA protein assay (Pierce). Supernatants were boiled in reducing SDS sample buffer (Novex). Twenty μg protein per lane were run on a 3-8% Tris acetate gel (Invitrogen) in Tris Acetate Reducing Running Buffer (Novex). Protein bands were transferred onto PVDF membranes (BioRad) using transfer buffer (Novex). Membranes were then blocked overnight at 4° C. in 2% blocking solution in TBS (Roche). Primary antibodies were diluted in 2% Boehringer blocking solution (total volume 5 ml). Membranes were incubated for one hour at room temperature with shaking, then washed 6 times for 10 minutes each in TBS wash buffer. Membranes were incubated in secondary antibody in 2% of blocking solution for 30 minutes, then washed 6 times for 10 minutes each at RT in wash buffer. Bands were detected with chemiluminescent reagent (Roche) according to the manufacturer's directions. […]
On the technique in general: A western blot detects proteins with antibodies after separation by electrophoresis.

In the next test the test system is MDA-MB231 cells. The experiment in a line: Cell cycle distribution of MDA-MB231 cells by flow cytometry. Format: cell-based, human. The procedure: Cell cycle analysis was performed to further study the effects of inhibition of Notch signaling in breast cancer cells. MDA-MB231 cells were treated overnight with 0-10 μM z-Leu-Leu-Nle-CHO prior to cell cycle distribution analysis by flow cytometry. Alternatively, MDA-MB231 cells were transfected with Notch-1, Notch-4 or control siRNA as described above in Example 15. For cell cycle distribution analysis by flow cytometry, z-Leu-Leu-Nle-CHO- or siRNA-treated cells (10^6) were pelleted and washed twice in PBS. Cells were then fixed in 80% methanol and stored at −20° C. until use. Fixed cells were pelleted and washed twice in PBS, and resuspended in 50 μl PI:PBS solution (50 μg/ml PI). After RNase A (100 μg/ml) treatment at 37° C. for an hour, cells were analyzed by flow cytometry using a FACScalibur instrument.
For orientation: In flow cytometry, cells or beads pass a laser one at a time.

Here are results for two molecules from patent publication US20080220416A1, “Compositions for Inhibiting Cell Growth and Inducing Apoptosis in Cancer Cells and Methods of Use Thereof” (THE BOARD OF TRUSTEES OF THE UNIVERSITY OF ILLINOI, priority 2004, published 2008).

Square brackets hold non-standard residues; d marks the D form. Peptide text beside a SMILES is read from it. * marks the point of attachment. Nle = CCCC[C@H](N)C(=O)O; Cbz = O=C(OCc1ccccc1)*

For the molecule “5′-AAGTGTCTGAGGCCAGCAAGA-3′ [Notch-1 siRNA]”, the “expression of Notch-1 and Notch-4” value with Notch-1 (MDA-MB231 / HMEC, data not shown) is “strongly inhibited the expression of both Notch-1 and -4”. In the test on MDA-MB231 cells (siRNA transfection), the cell cycle distribution entry was “accumulation of cells in G2/M was maximal at 24 hours”.

As for `CCCC[C@@H](C=O)NC(=O)[C@H](CC(C)C)NC(=O)[C@H](CC(C)C)NC(=O)OCc1ccccc1` [z-Leu-Leu-Nle-CHO, N-benzyloxycarbonyl-leucyl-leucyl-norleucinal] (Cbz-Leu-Leu-[Nle]-aldehyde), the “N^IC and N^TM levels” value in the test with Notch-1 (MDA-MB231, 0.5, 1 or 2 μM, 24 h, virtually complete at 2 μM) was “dose-dependent decrease in N^IC and relative accumulation of N^TM”. Moreover, in the test with MDA-MB231 cells (0-10 μM overnight), the cell cycle distribution result was “accumulation of cells in the G2/M stage of the cell cycle”.
